Literature values in patent publication US8101779B2, “Enantioselective synthesis of (+) and (–)-2-[1-(2,6-dichlorophenoxy)-ethyl]-1,3-diazacyclopent-2-ene” (University of Kentucky Research Foundation, priority 2008, dated 2012).

Compound	dose at which lowering of mean arterial blood pressure is not seen (effect not seen even at doses as high as) [µg/kg]	dose at which the effect of lowering mean arterial blood pressure is apparent (effect apparent at doses as low as) [µg/kg]
CC(Oc1c(Cl)cccc1Cl)C1=NCCN1 (single isomer, unassigned; (-)) [(−)-lofexidine, (−)-2-[1-(2,6-dichlorophenoxy)-ethyl]-1,3-diazacyclopent-2-ene]	> 10	–
CC(Oc1c(Cl)cccc1Cl)C1=NCCN1 (single isomer, unassigned; (+)) [(+)-lofexidine, (+) 2-[1-(2,6-dichlorophenoxy)-ethyl]1,3-diazacyclopent-2-ene]	–	≤ 0.561
